Reference: patent US10118930B2, “Piperidinylpyrazolopyrimidinones and their use” (BAYER PHARMA AKTIENGESELLSCHAFT, priority 2015, dated 2018)
Counter-ions that a name gives are not always drawn.

The molecules below were run on clot lysis (fibrinolysis) in diluted human citrated plasma, tPA-induced (assay: Plasma-based clot lysis assay (5%)). Details: human citrated platelet-poor plasma 5%, fibrinogen 3 μM, CaCl2 10 mM, tPA 0.2 nM, 37° C., OD at 405 nm.
Assay type: biochemical
In short: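 Clot formation and breakdown triggered by CaCl2 (10 mM final) plus tPA (0.2 nM final) at 37° C, in 5% diluted human plasma supplemented with 3 μM fibrinogen (HEPES/NaCl/Brij buffer, pH 7). IC50 obtained from time courses relative to a blank control.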
`CCc1noc(-c2c(C)nn3c(C4CCNCC4)cc(=O)[nH]c23)n1` [Example 300, 3-(3-ethyl-1,2,4-oxadiazol-5-yl)-2-methyl-7-(piperidin-4-yl)pyrazolo[1,5-a]pyrimidin-5(4H)-one hydrochloride] was tested, and the IC50 was 16 nM. Work on `Cc1nn2c(C3CCNCC3)cc(=O)[nH]c2c1-c1nc(-c2ccccc2OC(F)(F)F)no1` [Example 347, 2-methyl-7-(piperidin-4-yl)-3-{3-[2-(trifluoromethoxy)phenyl]-1,2,4-oxadiazol-5-yl}pyrazolo[1,5-a]pyrimidin-5(4H)-one hydrochloride] yielded an IC50 of 28 nM. `O=c1cc(C2CCNCC2)n2ncc(-c3nnc(Cc4c(F)cccc4Cl)o3)c2[nH]1` [Example 279, 3-[5-(2-chloro-6-fluorobenzyl)-1,3,4-oxadiazol-2-yl]-7-(piperidin-4-yl)pyrazolo[1,5-a]pyrimidin-5(4H)-one hydrochloride] gave an IC50 of 25 nM. Work on `Cc1nn2c(C3CCNCC3)cc(=O)[nH]c2c1C(=O)N1CC2CCCCC2C1` (stereo not shown) [Example 413, 2-methyl-3-(octahydro-2H-isoindol-2-ylcarbonyl)-7-(piperidin-4-yl) pyrazolo[1,5-a] pyrimidin-5(4H)-one hydrochloride] yielded an IC50 of 35 nM. For `O=c1cc(C2CCNCC2)n2ncc(-c3ccccc3OC(F)(F)F)c2[nH]1` [Example 71, 7-(Piperidin-4-yl)-3-[2-(trifluoromethoxy)phenyl]pyrazolo[1,5-a]pyrimidin-5(4H)-one hydrochloride], the IC50 was 34 nM. For `O=c1cc(C2CCNCC2)n2ncc(-c3noc(-c4ccc(C(F)(F)F)cc4Cl)n3)c2[nH]1` [Example 232, 3-{5-[2-chloro-4-(trifluoromethyl)phenyl]-1,2,4-oxadiazol-3-yl}-7-(piperidin-4-yl)pyrazolo[1,5-a]pyrimidin-5(4H)-one hydrochloride], the IC50 was 71 nM. `O=c1cc(C2CCNCC2)n2nc(C3CC3)cc2[nH]1` [Example 26, 2-Cyclopropyl-7-(piperidin-4-yl)pyrazolo[1,5-a]pyrimidin-5(4H)-one hydrochloride] showed an IC50 of 310 nM. For `Cn1nccc1-c1cnn2c(C3CCNCC3)cc(=O)[nH]c12` [Example 375, 3-(1-methyl-1H-pyrazol-5-yl)-7-(piperidin-4-yl)pyrazolo[1,5-a]pyrimidin-5(4H)-one hydrochloride], the IC50 was 30 nM. `Cc1nn2c(C3CCNCC3)cc(=O)[nH]c2c1C(=O)OCC(F)F` [Example 465, 2,2-difluoroethyl 2-methyl-5-oxo-7-(piperidin-4-yl)-4,5-dihydropyrazolo[1,5-a]pyrimidine-3-carboxylate hydrochloride] showed an IC50 of 40 nM. `O=c1cc(C2CCNCC2)n2ncc(-c3nc(-c4cccc(C(F)(F)F)n4)no3)c2[nH]1` [Example 146, 7-(Piperidin-4-yl)-3-{3-[6-(trifluoromethyl)pyridin-2-yl]-1,2,4-oxadiazol-5-yl}pyrazolo[1,5-a]pyrimidin-5(4H)-one hydrochloride] was tested, and the IC50 was 35 nM. `Cc1ccc(-c2noc(-c3cnn4c(C5CCNCC5)cc(=O)[nH]c34)n2)c(Cl)c1` [Example 130, 3-[3-(2-Chloro-4-methylphenyl)-1,2,4-oxadiazol-5-yl]-7-(piperidin-4-yl)pyrazolo[1,5-a]pyrimidin-5(4H)-one hydrochloride] gave an IC50 of 41 nM. `Cc1ccc(Cl)cc1-c1noc(-c2cnn3c(C4CCNCC4)cc(=O)[nH]c23)n1` [Example 141, 3-[3-(5-Chloro-2-methylphenyl)-1,2,4-oxadiazol-5-yl]-7-(piperidin-4-yl)pyrazolo[1,5-a]pyrimidin-5(4H)-one hydrochloride] gave an IC50 of 74 nM. Molecule `CN(Cc1cccnc1)C(=O)c1cnn2c(C3CCNCC3)cc(=O)[nH]c12` [Example 318, N-methyl-5-oxo-7-(piperidin-4-yl)-N-(pyridin-3-ylmethyl)-4,5-dihydropyrazolo[1,5-a]pyrimidine-3-carboxamide hydrochloride] has an IC50 of 45 nM. Molecule `Cc1ccc(Cl)cc1-c1nc(-c2cnn3c(C4CCNCC4)cc(=O)[nH]c23)no1` [Example 230, 3-[5-(5-chloro-2-methylphenyl)-1,2,4-oxadiazol-3-yl]-7-(piperidin-4-yl)pyrazolo[1,5-a]pyrimidin-5(4H)-one hydrochloride] has an IC50 of 36 nM. `N#Cc1ccccc1-c1cnn2c(C3CCNCC3)cc(=O)[nH]c12` [Example 49, 2-[5-Oxo-7-(piperidin-4-yl)-4,5-dihydropyrazolo[1,5-a]pyrimidin-3-yl]benzonitrile trifluoroacetate] showed an IC50 of 16 nM. Molecule `O=c1cc(C2CCNCC2)n2ncc(-c3nc(-c4ccc(C(F)(F)F)cc4Cl)no3)c2[nH]1` [Example 136, 3-{3-[2-Chloro-4-(trifluoromethyl)phenyl]-1,2,4-oxadiazol-5-yl}-7-(piperidin-4-yl)pyrazolo[1,5-a]pyrimidin-5(4H)-one hydrochloride] has an IC50 of 43 nM. `O=C(O)c1noc(-c2cnn3c(C4CCNCC4)cc(=O)[nH]c23)n1` [Example 221, 5-[5-oxo-7-(piperidin-4-yl)-4,5-dihydropyrazolo[1,5-a]pyrimidin-3-yl]-1,2,4-oxadiazole-3-carboxylic acid hydrochloride] was tested, and the IC50 was 48 nM. With `O=c1cc(C2CCNCC2)n2ncc(-c3noc(C4CCC(F)(F)CC4)n3)c2[nH]1` [Example 393, 3-(5-(4,4-difluorocyclohexyl)-1,2,4-oxadiazol-3-yl)-7-(piperidin-4-yl)pyrazolo[1,5-a]pyrimidin-5(4H)-one hydrochloride] the IC50 was 30 nM. Molecule `Cc1nn2c(C3CCNCC3)cc(=O)[nH]c2c1C(=O)N1Cc2ccccc2C1` [Example 410, 3-(1,3-dihydro-2H-isoindol-2-ylcarbonyl)-2-methyl-7-(piperidin-4-yl) pyrazolo[1,5-a] pyrimidin-5(4H)-one hydrochloride] has an IC50 of 45 nM. `COCC(C)(C)c1noc(-c2cnn3c(C4CCNCC4)cc(=O)[nH]c23)n1` [Example 105, 3-[3-(1-methoxy-2-methylpropan-2-yl)-1,2,4-oxadiazol-5-yl]-7-(piperidin-4-yl)pyrazolo[1,5-a]pyrimidin-5(4H)-one] gave an IC50 of 95 nM. In the case of `N#Cc1csc(-c2cnn3c(C4CCNCC4)cc(=O)[nH]c23)c1` [Example 68, 5-[5-Oxo-7-(piperidin-4-yl)-4,5-dihydropyrazolo[1,5-a]pyrimidin-3-yl]thiophene-3-carbonitrile trifluoroacetate], the IC50 is reported as 11 nM. `Cc1nn2c(C3CCNCC3)cc(=O)[nH]c2c1-c1nc(C2CCCCC2)no1` [Example 350, 3-(3-cyclohexyl-1,2,4-oxadiazol-5-yl)-2-methyl-7-(piperidin-4-yl)pyrazolo[1,5-a]pyrimidin-5(4H)-one hydrochloride] showed an IC50 of 20 nM. `CN(Cc1ccccc1)C(=O)c1cnn2c(C3CCNCC3)cc(=O)[nH]c12` [Example 97, N-benzyl-N-methyl-5-oxo-7-(piperidin-4-yl)-4,5-dihydropyrazolo[1,5-a]pyrimidine-3-carboxamide hydrochloride] gave an IC50 of 24 nM. In the case of `Cc1nn2c(C3CCNCC3)cc(=O)[nH]c2c1C(=O)OCCCF` [Example 464, 3-fluoropropyl 2-methyl-5-oxo-7-(piperidin-4-yl)-4,5-dihydropyrazolo[1,5-a]pyrimidine-3-carboxylate hydrochloride], the IC50 is reported as 130 nM. Molecule `O=c1cc(C2CCNCC2)n2ncc(-c3nnc(Cc4ccc(Cl)cc4)o3)c2[nH]1` [Example 284, 3-[5-(4-chlorobenzyl)-1,3,4-oxadiazol-2-yl]-7-(piperidin-4-yl)pyrazolo[1,5-a]pyrimidin-5(4H)-one hydrochloride] has an IC50 of 20 nM.
